Assay results published in patent US10627395B2, “Methods and systems for biomonitoring” (Newomics Inc., priority 2015, dated 2020).
Read-outs that look alike come from different tables or passages of the source.

How the values were obtained:
[1] = On-chip SPE-nanoLC-MS quantification of PFCs in human blood samples
Protocol: Standard stock PFCs solutions are prepared by diluting PFC standards (a list of which is shown in Table 2) in methanol in polypropylene vials. All glassware is rinsed with methanol before use. For plasma samples spiked with PFCs, frozen pooled human plasma is obtained from Innovative Research Inc. (Novi, Mich.). A 5 microliter aliquot of human plasma is thawed and mixed with 2.5 microliters of internal standards (^13C8-PFOA and ^13C8-PFOS, 50 ng/ml), 2.5 microliters of PFC standards with desired concentration, and 20 microliters of cold acetonitrile with 0.1% formic acid. After vortexing for 2 min, the mixture is sonicated for 10 min and then centrifuged at 14,000 g for 15 min. 24 microliters of the supernatant is taken out and allowed to evaporate at room temperature until the volume is reduced to around 16 microliters. All samples are stored in polypropylene vials at minus 20 degree Celsius. Standard Reference Materials (SRMs) 1950 Metabolites in Human Plasma ordered from National Institute of Standards and Technology (NIST) are stored at minus 80 degree Celsius before use. NIST SRM 1950 is thawed at room temperature and prepared by the same procedure as pooled plasma samples for validation of the chip performance.
The SPE run starts with conditioning a C18-packed SPE column by flowing 20 microliters of LC solvent B (95%/5% methanol/H2O with 2 mM ammonium acetate) at 10 microliters/min through the inlet port P1. The column is then equilibrated with 20 microliters of LC solvent A (5%/95% methanol/H2O with 2 mM ammonium acetate) at 10 microliters/min. Four microliters of the sample (containing lmicroliters of plasma) are injected into a 20-microliter sample loop and loaded onto the SPE column, followed by washing with 20 microliters of LC solvent A at 10 microliters/min. Next, the analytes are eluted from the SPE column with LC solvent B at 1 microliter/min and transferred to the trap column by mixing it with another stream of LC solvent A through the port P3 (20 microliters/min). The passive microfluidic mixer including herringbone structures enables efficient mixing of two streams and thus prevents heterogeneous streaming of organic solvent from the SPE eluent, allowing the analytes to be enriched on the trap column efficiently. Finally the HPLC gradient elution at flow rate of 600 nl/min is run to separate the analytes that are to be analyzed by nanoESI-MS. The LC solvent A consists of 5%/95% methanol/H2O with 2 mM ammonium acetate, and solvent B consists of 95%/5% methanol/H2O with 2 mM ammonium acetate. […] After that, it is increased to 95% B in 5 minutes and held at 95% B for 5 minutes. Finally it returns to the initial condition (10% B) in 2 minutes and is held for 5 minutes. The total time period for each SPE-LC-MS run is about one hour. Negative-ion-mode MS detection are performed on a hybrid quadrupole/orthogonal Q-TOF API US mass spectrometer (Waters Corp.). The capillary voltage and cone voltage are set to −2.4 kV and 25 V, respectively, and the collision energy is fixed at 10 eV. The nanoelectrospray process on emitters is visualized and monitored using a Waters nanoflow camera kit equipped with a MLH-10 Zoom lenses (Computar).
The raw LC-MS data are processed using MassLynx 4.0 software package provided with the Q-TOF API US instrument (Waters Corp.). Extracted ion chromatograms (EIC) for all target analytes are generated using their corresponding precursor/product ions with a mass window of 0.10 Da. The peak area ratio of each analyte relative to its corresponding isotope-labelled internal standard is used for quantification. For perfluorocarboxylate compounds, their product ions are used for quantitation, because their product ions are more abundant (3-5 times) than precursor ions under current MS settings. The abundance ratio between the product ion and precursor ion for each perfluorocarboxylate compound is found to be consistent over the wide concentration range (1-100 ng/ml). […]

[2] = NIST SRM 1950 human plasma; reference value provided by NIST; cited from earlier work
[3] = U.S. population of 20 years and older, cited from earlier work
[4] = target: human serum albumin (HSA) (Homo sapiens, UniProt P02768); settings: cited from earlier work
[5] = NIST SRM 1950 human plasma, SPE-LC-MS chip
[6] = pooled human plasma, SPE-LC-MS chip

human serum albumin (HSA), sequence (P02768 25-609): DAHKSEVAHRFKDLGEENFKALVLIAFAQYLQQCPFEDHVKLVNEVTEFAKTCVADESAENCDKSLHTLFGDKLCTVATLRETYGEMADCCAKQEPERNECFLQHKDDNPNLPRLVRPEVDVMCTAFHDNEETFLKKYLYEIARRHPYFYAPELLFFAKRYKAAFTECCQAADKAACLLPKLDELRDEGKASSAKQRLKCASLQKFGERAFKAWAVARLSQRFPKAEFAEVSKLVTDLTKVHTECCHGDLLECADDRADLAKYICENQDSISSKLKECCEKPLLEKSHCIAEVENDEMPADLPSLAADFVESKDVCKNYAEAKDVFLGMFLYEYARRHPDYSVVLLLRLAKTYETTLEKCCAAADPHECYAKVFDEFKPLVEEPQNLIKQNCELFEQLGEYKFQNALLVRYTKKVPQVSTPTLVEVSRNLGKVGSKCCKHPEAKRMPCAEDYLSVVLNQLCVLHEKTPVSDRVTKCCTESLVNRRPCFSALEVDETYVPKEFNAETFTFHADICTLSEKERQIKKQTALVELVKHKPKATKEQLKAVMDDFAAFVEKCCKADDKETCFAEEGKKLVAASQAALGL

SMILES: O=C(O)C(F)(F)C(F)(F)C(F)(F)C(F)(F)C(F)(F)C(F)(F)C(F)(F)C(F)(F)C(F)(F)F [PFDeA, Perfluorodecanoic acid]
- Concentration of PFCs, NIST SRM 1950, Measured Value [1, 5]: 0.364 ± 0.033 ng/mL
- Concentration of PFCs, Pooled plasma, Measured Value [1, 6]: 0.279 ng/mL
- Concentration of PFCs, NIST SRM 1950, Reference Value [2]: 0.322 ± 0.007 ng/mL
- Individual serum, National Exposure Report by CDC, geometric mean (95% confidence interval) ([3]; survey year 2009-2010): 0.289 (0.265-0.314) ng/ml
- Individual serum, National Exposure Report by CDC, geometric mean (95% confidence interval) ([3]; survey year 2011-2012): 0.209(0.189-0.230) ng/ml

SMILES: O=S(=O)(O)C(F)(F)C(F)(F)C(F)(F)C(F)(F)C(F)(F)C(F)(F)F [PFHxS, Perfluorohexane sulfonic acid]
- Concentration of PFCs, NIST SRM 1950, Measured Value [1, 5]: 3.53 ± 0.38 ng/mL
- Concentration of PFCs, Pooled plasma, Measured Value [1, 6]: 1.18 ng/mL
- Concentration of PFCs, NIST SRM 1950, Reference Value [2]: 3.25 ± 0.080 ng/mL
- Individual serum, National Exposure Report by CDC, geometric mean (95% confidence interval) ([3]; survey year 2009-2010): 1.61 (1.45-1.79) ng/ml
- Individual serum, National Exposure Report by CDC, geometric mean (95% confidence interval) ([3]; survey year 2011-2012): 1.28 (1.14-1.43) ng/ml

SMILES: O=C(O)C(F)(F)C(F)(F)C(F)(F)C(F)(F)C(F)(F)C(F)(F)C(F)(F)F [PFOA, Perfluorooctanoic acid]
- number of PFOA binding sites to human serum albumin (HSA) [4]: over 6
- PFOA bound to HSA in human blood ([4]; human blood): more than 90%

SMILES: O=S(=O)(O)C(F)(F)C(F)(F)C(F)(F)C(F)(F)C(F)(F)C(F)(F)C(F)(F)C(F)(F)F [PFOS, Perfluorooctane sulfonic acid]
- Concentration of PFCs, NIST SRM 1950, Measured Value [1, 5]: 11.1 ± 0.36 ng/mL
- Concentration of PFCs, Pooled plasma, Measured Value [1, 6]: 4.76 ng/mL
- Concentration of PFCs, NIST SRM 1950, Reference Value [2]: 10.6 ± 0.13 ng/mL
- Individual serum, National Exposure Report by CDC, geometric mean (95% confidence interval) ([3]; survey year 2009-2010): 9.72 (8.45-11.2) ng/ml
- Individual serum, National Exposure Report by CDC, geometric mean (95% confidence interval) ([3]; survey year 2011-2012): 6.71 (6.24-7.20) ng/ml

SMILES: NS(=O)(=O)C(F)(F)C(F)(F)C(F)(F)C(F)(F)C(F)(F)C(F)(F)C(F)(F)C(F)(F)F [PFOSA, Perfluorooctane sulfonamide]
- Concentration of PFCs, NIST SRM 1950, Measured Value ([1]; human): 0.172 ± 0.078 ng/mL
- Concentration of PFCs, Pooled plasma, Measured Value ([1]; human): 0.094 ng/mL
- Individual serum, National Exposure Report by CDC, geometric mean (95% confidence interval) ([3]; survey year 2009-2010): <0.1; <0.1 ng/ml
- Individual serum, National Exposure Report by CDC, geometric mean (95% confidence interval) ([3]; survey year 2011-2012): <0.1; <0.1 ng/ml
